Experimental findings from patent US20240166765A1, “INFLAMMATORY DISEASE TREATMENT USING ANTI-TISSUE FACTOR ANTIBODIES” (Iconic Therapeutics LLC, priority 2020, published 2024) are described below.

The subject of the assay is TF-positive A431 cells. The experiment in a line: Cytotoxicity assay of ADCs, A431 cells. Particulars: Primary ADC. It counts as cell-based, human. The procedure: To evaluate cytotoxicity of ADCs, TF-positive A431 and HPAF-II cells were plated in 384-well plates (Greiner Bio-One, Monroe, NC, USA) at 4×10^3 cells per well in 40 μL of media. Anti-TF antibodies conjugated to MC-vc-PAB-MMAE were serially diluted starting at 5 nM. Plates were incubated for 3 to 4 days, followed by lysis in CellTiter-Glo (CTG) assay reagent (Promega, Madison, WI, USA). CTG luminescence was measured on an Envision plate reader and the mean and standard deviation of 4 replicates were graphed in Prism.
To evaluate ADC cytotoxicity, A431 cells were plated in 384-well plates (Greiner Bio-One). Anti-TF antibodies conjugated to MC-vc-PAB-MMAE were serially diluted as shown. The TF-specific ADCs were added to A431 cells, with either a 72 h incubation or a 4 h incubation followed by removal of excess ADC and culture for another 68 h. A431 cells were lysed in CTG assay reagent after treatment. CTG luminescence was measured and the mean and standard deviation of 4 replicates graphed in Prism.

In general, IC50 refers to the concentration that gives 50% inhibition. Read a low IC50 as higher potency.

On to TF-011, for which the half-inhibitory concentration (IC50) was found to be 0.17 nM (4 hr, followed by washout, FIG. 20B); 0.09 nM (4 hr, followed by washout, FIG. 21A); 0.05 nM (Continuous treatment, FIG. 20A).
